In PMC5420417, “Inhibitory Effect of Chemical Constituents Isolated from Artemisia iwayomogi on Polyol Pathway and Simultaneous Quantification of Major Bioactive Compounds” (BioMed Research International, 2017):
Where two headings read alike, the source gives them in different places.

Assays:
aldose reductase (AR) = target: T1, aldose reductase (AR) (Rattus norvegicus, UniProt P07943); assay: Aldose reductase (AR) inhibitory activity, rat lens homogenate, decrease of β-NADPH absorption at 340 nm; format: biochemical, Sprague-Dawley rats
T1 construct: The rat lenses were homogenized in 0.1 M sodium phosphate buffer (pH 6.2) and centrifuged; from tissue; host or cells: lens of Sprague-Dawley rats (homogenate supernatant)
Procedure: Rat lenses (one lens per 0.5 mL sodium buffer) were obtained from Sprague-Dawley rats (weighing 250~280 g). The rat lenses were homogenized in 0.1 M sodium phosphate buffer (pH 6.2) and centrifuged at 10,000 rpm (4°C, 20 min). After centrifugation, the supernatant was used as an enzyme. AR activity was spectrophotometrically determined by measuring the decrease in the absorption of β-NADPH at 340 nm for a 4 min period using DL-glyceraldehydes as substrates. The assay mixture contained 1.6 mM β-NADPH, 0.1 M potassium phosphate buffer (pH 7.0), AR homogenate, 4 M ammonium sulfate, 0.025 M DL-glyceraldehyde, and the sample in 100% DMSO. The total volume of the assay mixture was 0.3 mL and the reaction was performed in a 96-well plate. 3,3′-Tetramethylene glutaric acid (TMG), a typical AR inhibitor, was used as a positive control.
(§1) Inhibition (%): (Ac − As/Ac) × 100. In AR inhibition activity, Ac is absorbance of control and As is absorbance of samples. In AGEs formation inhibition activity, Ac is fluorescence of control and As is fluorescence of samples. […] IC50 values were calculated from the least-squares regression line of the log of concentration plotted against residual activity. All assays were performed in triplicate. Data was presented as mean ± standard deviation (SD).

[1] = system: advanced glycation endproducts (AGEs) formation; assay: AGEs formation inhibitory activity, bovine serum albumin with fructose and glucose, fluorescence; format: biochemical; conditions: for IC50: ND = not detected
Procedure: Inhibition of AGEs formation was determined by an assay containing bovine serum albumin (10 mg/mL) in 50 mM phosphate buffer (pH 7.4) with 0.02% sodium azide, to which 0.4 M fructose and glucose was added. The assay mixture was incubated at 60°C for 2 days. After incubating, the reaction was measured on Fluorescence in a 96-black-well plate (excitation wavelength 350 nm, emission wavelength 450 nm). Aminoguaidine (AG) was used as a positive control.
as §1

AR = system: AR; set-up: method as in PMID 21092751, PMID 18379080; conditions: previous literature ref 24, 38; cited from earlier work
[2] = rat lens AR, DL-glyceraldehyde substrate, mean ± SD, triplicate, read-out: IC50 AR
[3] = BSA 10 mg/mL, 0.4 M fructose and glucose, 60°C, 2 days, mean ± SD

IC50 (aldose reductase (AR); [2]) [µM]	IC50 [1, 3] [µM]	SMILES	further results
12.5 ± 0.2	129 ± 4.01	C[C@@H]1O[C@@H](OC[C@H]2O[C@@H](Oc3c(-c4ccc(O)c(O)c4)oc4cc(O)cc(O)c4c3=O)[C@H](O)[C@@H](O)[C@@H]2O)[C@H](O)[C@H](O)[C@H]1O [Compound 11, rutin]	
4.54 ± 0.16	176 ± 5.77	O=C(/C=C/c1ccc(O)c(O)c1)OC1CC(O)(C(=O)O)CC(O)C1O (centres unmarked) [Compound 12, 3-O-caffeoylquinic acid]	
90.4 ± 1.91	20.7 ± 1.38	COc1cc2ccc(=O)oc2cc1O [Compound 1, scopoletin]	inhibition of AR (in words) (aldose reductase (AR); rat lens AR): minor inhibition
> 200		CC1(C)C(=O)CCC2(C)C3CCC4CC3(CCC12)CC4(O)COC1OC(CO)C(O)C(O)C1O (centres unmarked) [Compound 19, sugeroside]	
3.19 ± 0.1	197 ± 11	COc1c(O)cc2oc(-c3ccc(O)c(O)c3)c(OC3OC(CO)C(O)C(O)C3O)c(=O)c2c1O (centres unmarked) [Compound 8, patuletin-3-O-glucoside]	
> 200		CC1(C)C(O)CCC2(C)C3CCC4CC3(CCC12)CC4(O)COC1OC(CO)C(O)C(O)C1O (centres unmarked) [Compound 18, suavioside A]	
> 200	312 ± 11.3	COc1cc(O)c2c(=O)cc(-c3ccc(O)cc3)oc2c1 [Compound 3, genkwanin]	
0.22 ± 0.01	24.9 ± 1.86	O=C(/C=C/c1ccc(O)c(O)c1)OC1CC(OC(=O)/C=C/c2ccc(O)c(O)c2)(C(=O)O)CC(O)C1O (centres unmarked) [Compound 13, 1,3-di-O-caffeoylquinic acid]	inhibition of AR (in words) (aldose reductase (AR); rat lens AR): strongest inhibition
3.32 ± 0.21	67.4 ± 9.95	O=c1c(O[C@@H]2O[C@H](CO)[C@@H](O)[C@H](O)[C@H]2O)c(-c2ccc(O)c(O)c2)oc2cc(O)cc(O)c12 [Compound 9, isoquercetin]	
1.48 ± 0.04	44.5 ± 4.86	COC(=O)C1(O)CC(OC(=O)/C=C/c2ccc(O)c(O)c2)C(O)C(OC(=O)/C=C/c2ccc(O)c(O)c2)C1 (centres unmarked) [Compound 16, 3,5-di-O-caffeoylquinic acid methyl ester]	
		O=C(O)/C=C/c1ccc(O)c(O)c1 [caffeic acid]	inhibitory activity on AR (in words) (AR): no inhibitory activity
131.37 ± 0.12	82.4 ± 1.52	COc1cc2ccc(=O)oc2cc1O[C@@H]1O[C@H](CO)[C@@H](O)[C@H](O)[C@H]1O [Compound 2, scopolin]	
111 ± 9.89	170 ± 16.4	COc1cc(-c2cc(=O)c3c(O)c(OC)c(O)cc3o2)ccc1O [Compound 5, jaceosidin]	
> 200	1049 ± 0.11	COc1cc(OC2OC(CO)C(O)C(O)C2O)cc(O)c1C(C)=O [Compound 20, 2,4-dihydroxy-6-methoxyacetophenone 4-O-β-D-glucopyranoside]	inhibition of AGEs formation (in words) ([1]; BSA/fructose/glucose): only slight inhibition
> 200		CC1(C)C(O)CCC2(C)C3CCC4CC3(CCC12)CC4(O)COC1OC(CO)C(O)C(O)C1O (centres unmarked) [Compound 17, iwayoside A]	

SMILES	IC50 (aldose reductase (AR); [2]) [µM]	IC50 [1, 3] [µM]	further results
COc1c(O)cc2oc(-c3ccc(O)cc3)cc(=O)c2c1O [Compound 4, hispidulin]		185.6 ± 0.2	IC50 (aldose reductase (AR)): 2.93 ± 0.11 µM
O=C(O)CC1(CC(=O)O)CCCC1 [TMG, 3,3′-Tetramethylene glutaric acid, reference compound]	6.58 ± 0.19		IC50 AR (aldose reductase (AR); rat lens AR, DL-glyceraldehyde substrate, extract and fractions, mean ± SD, triplicate): 1.22 ± 0.03^∗ μg/ml
O=C(/C=C/c1ccc(O)c(O)c1)OC1CC(O)(C(=O)O)CC(O)C1OC(=O)/C=C/c1ccc(O)c(O)c1 (centres unmarked) [Compound 14, 3,4-di-O-caffeoylquinic acid]	1.9 ± 0.01	124 ± 4.25	
O=C(/C=C/c1ccc(O)c(O)c1)OC1CC(O)(C(=O)O)CC(OC(=O)/C=C/c2ccc(O)c(O)c2)C1O (centres unmarked) [Compound 15, 3,5-di-O-caffeoylquinic acid]		31.8 ± 0.56	
N=C(N)NN [AG, Aminoguaidine, reference compound]		415 ± 5.96	IC50 AGEs formation ([1]; BSA 10 mg/mL, 0.4 M fructose and glucose, 60°C, 2 days, extract and fractions, mean ± SD): 45.85 ± 7.17^∗∗ μg/ml
